Experimental data published in patent publication US12252524B2, “GIP/GLP1 co-agonist compounds” (Eli Lilly and Company, priority 2018, dated 2025).
Numbered stars: 1 amine (or outer) side, 2 acyl side, 3 side chain; on linkers, the order of the positions; unused ones are H or OH. Square brackets hold non-standard residues; d marks the D form. Side chains are listed from the residue outwards. Peptide text beside a SMILES is read from it. * marks the point of attachment. C20 diacid = O=C(O)CCCCCCCCCCCCCCCCCCC(=O)*; γGlu = O=C(O)[C@H](CCC(=O)[*:2])N[*:1]; AEEA = NCCOCCOCC(=O)O; Aib = CC(C)(N)C(=O)O

Legend:
human Gcg receptor = molecular target: T1, human Gcg receptor (Homo sapiens, UniProt P47871); assay: [125I]-Glucagon binding (SPA), human Gcg receptor; settings: read-out: hGLcgR Ki, nM (SEM, n)
T1 construct: expressed in transfected cells; crude membranes
Outline: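 Crude membranes from cells expressing the receptor, prepared by hypotonic lysis in 50 mM Tris HCl pH 7.5 with protease inhibitors, homogenization and differential centrifugation, were used in a WGA-bead SPA. Binding buffer: 25 mM HEPES pH 7.4, 2.5 mM CaCl2, 1 mM MgCl2, bacitracin, Tween-20.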

human GIP receptor = molecular target: T2, human GIP receptor (Homo sapiens, UniProt P48546); assay: [125I]-GIP binding (SPA), human GIP receptor; settings: read-out: hGIPR Ki, nM (SEM, n)
T2 construct: expressed in transfected cells; crude membranes
T2 sequence (P48546 22-466): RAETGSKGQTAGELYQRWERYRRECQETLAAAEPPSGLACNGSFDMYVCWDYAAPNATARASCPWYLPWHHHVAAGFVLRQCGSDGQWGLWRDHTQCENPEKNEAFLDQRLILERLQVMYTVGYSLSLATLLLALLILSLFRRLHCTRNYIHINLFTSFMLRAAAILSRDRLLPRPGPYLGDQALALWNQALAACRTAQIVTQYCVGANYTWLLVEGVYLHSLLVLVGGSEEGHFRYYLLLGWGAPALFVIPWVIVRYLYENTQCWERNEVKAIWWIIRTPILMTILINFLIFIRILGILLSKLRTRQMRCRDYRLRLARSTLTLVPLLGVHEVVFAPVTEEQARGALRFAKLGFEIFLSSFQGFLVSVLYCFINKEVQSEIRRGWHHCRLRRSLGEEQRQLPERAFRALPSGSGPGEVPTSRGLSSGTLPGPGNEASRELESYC

[1] = molecular target: human GLP-1 receptor (GLP-1R) (Homo sapiens, UniProt P43220); assay: cAMP pharmacological functional assay in presence of casein, hGLP-1R; type: cell-based; settings: HEK293 cells expressing hGLP-1R, 0.1% Casein, geometric mean; read-out: hGLP1R cAMP Rel EC50 nM (SEM, n)
[2] = molecular target: T3, gastric inhibitory peptide receptor (GIPR) (Homo sapiens, UniProt P48546); assay: cAMP pharmacological functional assay in presence of casein, hGIPR; type: cell-based; settings: HEK293 cells expressing hGIPR, 0.1% Casein, geometric mean; read-out: hGIPR cAMP Rel EC50 nM (SEM, n)
T3 sequence (P48546 22-466): T2 sequence (P48546 22-466)

human GLP-1R = human GLP-1R (Homo sapiens, UniProt P43220); assay: [125I]-GLP-1 binding (SPA), human GLP-1 receptor; design: expressed in transfected cells; crude membranes; settings: read-out: hGLP1R Ki, (nM) (SEM, n)
Outline: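 Ki values are geometric means with SEM over independent replicates on different days, derived from IC50s fitted by four-parameter nonlinear regression. The assay used crude cell membranes in HEPES buffer, pH 7.4, containing CaCl2, MgCl2, bacitracin and TWEEN-20.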

Chain of human GLP-1R (P43220 24-463): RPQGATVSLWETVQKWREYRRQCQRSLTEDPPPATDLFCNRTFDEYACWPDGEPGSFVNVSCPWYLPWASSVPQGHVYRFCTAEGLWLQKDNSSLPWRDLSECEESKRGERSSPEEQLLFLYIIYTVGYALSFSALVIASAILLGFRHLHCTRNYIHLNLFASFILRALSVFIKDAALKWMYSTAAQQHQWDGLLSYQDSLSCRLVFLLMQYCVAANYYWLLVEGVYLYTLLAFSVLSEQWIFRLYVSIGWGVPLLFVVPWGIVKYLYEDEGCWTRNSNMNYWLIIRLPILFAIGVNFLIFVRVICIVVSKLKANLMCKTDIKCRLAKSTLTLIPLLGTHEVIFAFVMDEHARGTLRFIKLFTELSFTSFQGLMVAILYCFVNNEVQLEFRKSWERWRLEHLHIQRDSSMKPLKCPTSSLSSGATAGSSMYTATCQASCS
Chain of human GLP-1 receptor (GLP-1R) (P43220 24-463): as above
T1 sequence (P47871 26-477): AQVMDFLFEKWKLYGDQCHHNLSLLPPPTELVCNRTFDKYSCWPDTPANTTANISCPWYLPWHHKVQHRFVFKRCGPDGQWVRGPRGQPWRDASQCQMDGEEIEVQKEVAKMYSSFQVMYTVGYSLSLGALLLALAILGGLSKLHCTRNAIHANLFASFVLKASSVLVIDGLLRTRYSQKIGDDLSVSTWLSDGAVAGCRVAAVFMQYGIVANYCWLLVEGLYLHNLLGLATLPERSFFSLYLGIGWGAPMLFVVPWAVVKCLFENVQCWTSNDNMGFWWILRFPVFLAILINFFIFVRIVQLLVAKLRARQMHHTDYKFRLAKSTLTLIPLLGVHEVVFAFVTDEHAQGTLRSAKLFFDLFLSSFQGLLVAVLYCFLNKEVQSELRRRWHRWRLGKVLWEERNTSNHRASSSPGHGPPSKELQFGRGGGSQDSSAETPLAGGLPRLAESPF

Row | Compound | Ki (human Gcg receptor) [nM] | Ki (human GIP receptor) [nM] | EC50 [1] [nM] | EC50 [2] [nM] | Ki (human GLP-1R) [nM]
1 | CC[C@H](C)[C@H](NC(=O)[C@H](CCCCN)NC(=O)[C@H](CC(=O)O)NC(=O)[C@H](CC(C)C)NC(=O)[C@H](CC(C)C)NC(=O)[C@@H](NC(=O)[C@H](CO)NC(=O)[C@H](Cc1ccc(O)cc1)NC(=O)[C@H](CC(=O)O)NC(=O)[C@H](CO)NC(=O)[C@@H](NC(=O)[C@H](Cc1ccccc1)NC(=O)[C@@H](NC(=O)CNC(=O)[C@H](CCC(=O)O)NC(=O)C(C)(C)NC(=O)[C@@H](N)Cc1ccc(O)cc1)[C@@H](C)O)[C@@H](C)O)[C@@H](C)CC)C(=O)N[C@@H](C)C(=O)N[C@@H](CCC(N)=O)C(=O)NC(C)(C)C(=O)N[C@@H](CCCCNC(=O)COCCOCCNC(=O)COCCOCCNC(=O)CC[C@H](NC(=O)CCCCCCCCCCCCCCCCCCC(=O)O)C(=O)O)C(=O)N[C@@H](Cc1ccccc1)C(=O)N[C@H](C(=O)N[C@@H](CCC(=O)O)C(=O)N[C@@H](Cc1ccc(O)cc1)C(=O)N[C@@H](CC(C)C)C(=O)N[C@H](C(=O)N[C@@H](CCC(=O)O)C(=O)NCC(=O)NCC(=O)N1CCC[C@H]1C(=O)N[C@@H](CO)C(=O)N[C@@H](CO)C(=O)NCC(=O)N[C@@H](C)C(=O)N1CCC[C@H]1C(=O)N1CCC[C@H]1C(=O)N1CCC[C@H]1C(=O)N[C@@H](CO)C(N)=O)[C@@H](C)CC)[C@@H](C)CC [Example 32] (H-Y[Aib]EGTFTSDYSILLDKIAQ[Aib]K([AEEA-AEEA-γGlu-C20 diacid])FIEYLIEGGPSSGAPPPS-NH2) | 44.7 | 0.0205 | 0.498 | 0.179 | 3.96
2 | CC[C@H](C)[C@H](NC(=O)[C@H](CCCCN)NC(=O)[C@H](CC(=O)O)NC(=O)[C@H](CC(C)C)NC(=O)[C@H](CC(C)C)NC(=O)[C@@H](NC(=O)[C@H](CO)NC(=O)[C@H](Cc1ccc(O)cc1)NC(=O)[C@H](CC(=O)O)NC(=O)[C@H](CO)NC(=O)[C@@H](NC(=O)[C@H](Cc1ccccc1)NC(=O)[C@@H](NC(=O)CNC(=O)[C@H](CCC(=O)O)NC(=O)C(C)(C)NC(=O)[C@@H](N)Cc1ccc(O)cc1)[C@@H](C)O)[C@@H](C)O)[C@@H](C)CC)C(=O)N[C@@H](C)C(=O)N[C@@H](CCC(N)=O)C(=O)NC(C)(C)C(=O)N[C@@H](C)C(=O)N[C@@H](Cc1ccccc1)C(=O)N[C@@H](CCCCNC(=O)COCCOCCNC(=O)COCCOCCNC(=O)CC[C@H](NC(=O)CCCCCCCCCCCCCCCCCCC(=O)O)C(=O)O)C(=O)N[C@@H](CCC(=O)O)C(=O)N[C@@H](Cc1ccc(O)cc1)C(=O)N[C@@H](CC(C)C)C(=O)N[C@H](C(=O)N[C@@H](CCC(=O)O)C(=O)NCC(=O)NCC(=O)N1CCC[C@H]1C(=O)N[C@@H](CO)C(=O)N[C@@H](CO)C(=O)NCC(=O)N[C@@H](C)C(=O)N1CCC[C@H]1C(=O)N1CCC[C@H]1C(=O)N1CCC[C@H]1C(=O)N[C@@H](CO)C(N)=O)[C@@H](C)CC [Example 33] (H-Y[Aib]EGTFTSDYSILLDKIAQ[Aib]AFK([AEEA-AEEA-γGlu-C20 diacid])EYLIEGGPSSGAPPPS-NH2; N-terminus assumed) | > 979 | 6.4 | 251 | 63.3 | 361
3 | CC[C@H](C)[C@H](NC(=O)[C@H](CCCCN)NC(=O)[C@H](CC(=O)O)NC(=O)[C@H](CC(C)C)NC(=O)[C@H](CC(C)C)NC(=O)[C@@H](NC(=O)[C@H](CO)NC(=O)[C@H](Cc1ccc(O)cc1)NC(=O)[C@H](CC(=O)O)NC(=O)[C@H](CO)NC(=O)[C@@H](NC(=O)[C@H](Cc1ccccc1)NC(=O)[C@@H](NC(=O)CNC(=O)[C@H](CCC(=O)O)NC(=O)C(C)(C)NC(=O)[C@@H](N)Cc1ccc(O)cc1)[C@@H](C)O)[C@@H](C)O)[C@@H](C)CC)C(=O)N[C@@H](C)C(=O)N[C@@H](CCC(N)=O)C(=O)NC(C)(C)C(=O)N[C@@H](C)C(=O)N[C@@H](Cc1ccccc1)C(=O)N[C@H](C(=O)N[C@@H](CCCCNC(=O)COCCOCCNC(=O)COCCOCCNC(=O)CC[C@H](NC(=O)CCCCCCCCCCCCCCCCCCC(=O)O)C(=O)O)C(=O)N[C@@H](Cc1ccc(O)cc1)C(=O)N[C@@H](CC(C)C)C(=O)N[C@H](C(=O)N[C@@H](CCC(=O)O)C(=O)NCC(=O)NCC(=O)N1CCC[C@H]1C(=O)N[C@@H](CO)C(=O)N[C@@H](CO)C(=O)NCC(=O)N[C@@H](C)C(=O)N1CCC[C@H]1C(=O)N1CCC[C@H]1C(=O)N1CCC[C@H]1C(=O)N[C@@H](CO)C(N)=O)[C@@H](C)CC)[C@@H](C)CC [Example 34] (H-Y[Aib]EGTFTSDYSILLDKIAQ[Aib]AFIK([AEEA-AEEA-γGlu-C20 diacid])YLIEGGPSSGAPPPS-NH2) | 134 | 0.0467 | 1.56 | 0.36 | 3.41
4 | CC[C@H](C)[C@H](NC(=O)[C@H](CCCCN)NC(=O)[C@H](CC(=O)O)NC(=O)[C@H](CC(C)C)NC(=O)[C@H](CC(C)C)NC(=O)[C@@H](NC(=O)[C@H](CO)NC(=O)[C@H](Cc1ccc(O)cc1)NC(=O)[C@H](CC(=O)O)NC(=O)[C@H](CO)NC(=O)[C@@H](NC(=O)[C@H](Cc1ccccc1)NC(=O)[C@@H](NC(=O)CNC(=O)[C@H](CCC(=O)O)NC(=O)C(C)(C)NC(=O)[C@@H](N)Cc1ccc(O)cc1)[C@@H](C)O)[C@@H](C)O)[C@@H](C)CC)C(=O)N[C@@H](C)C(=O)N[C@@H](CCC(N)=O)C(=O)NC(C)(C)C(=O)N[C@@H](C)C(=O)N[C@@H](Cc1ccccc1)C(=O)N[C@H](C(=O)N[C@@H](CCC(=O)O)C(=O)N[C@@H](Cc1ccc(O)cc1)C(=O)N[C@@H](CCCCNC(=O)COCCOCCNC(=O)COCCOCCNC(=O)CC[C@H](NC(=O)CCCCCCCCCCCCCCCCCCC(=O)O)C(=O)O)C(=O)N[C@H](C(=O)N[C@@H](CCC(=O)O)C(=O)NCC(=O)NCC(=O)N1CCC[C@H]1C(=O)N[C@@H](CO)C(=O)N[C@@H](CO)C(=O)NCC(=O)N[C@@H](C)C(=O)N1CCC[C@H]1C(=O)N1CCC[C@H]1C(=O)N1CCC[C@H]1C(=O)N[C@@H](CO)C(N)=O)[C@@H](C)CC)[C@@H](C)CC [Example 35] (H-Y[Aib]EGTFTSDYSILLDKIAQ[Aib]AFIEYK([AEEA-AEEA-γGlu-C20 diacid])IEGGPSSGAPPPS-NH2) | > 964 | 0.0358 | 8.38 | 0.0905 | 54.6
5 | CC[C@H](C)[C@H](NC(=O)[C@H](CCCCN)NC(=O)[C@H](CC(=O)O)NC(=O)[C@H](CC(C)C)NC(=O)[C@H](CC(C)C)NC(=O)[C@@H](NC(=O)[C@H](CO)NC(=O)[C@H](Cc1ccc(O)cc1)NC(=O)[C@H](CC(=O)O)NC(=O)[C@H](CO)NC(=O)[C@@H](NC(=O)[C@H](Cc1ccccc1)NC(=O)[C@@H](NC(=O)CNC(=O)[C@H](CCC(=O)O)NC(=O)C(C)(C)NC(=O)[C@@H](N)Cc1ccc(O)cc1)[C@@H](C)O)[C@@H](C)O)[C@@H](C)CC)C(=O)N[C@@H](C)C(=O)N[C@@H](CCC(N)=O)C(=O)NC(C)(C)C(=O)N[C@@H](C)C(=O)N[C@@H](Cc1ccccc1)C(=O)N[C@H](C(=O)N[C@@H](CCC(=O)O)C(=O)N[C@@H](Cc1ccc(O)cc1)C(=O)N[C@@H](CC(C)C)C(=O)N[C@@H](CCCCNC(=O)COCCOCCNC(=O)COCCOCCNC(=O)CC[C@H](NC(=O)CCCCCCCCCCCCCCCCCCC(=O)O)C(=O)O)C(=O)N[C@@H](CCC(=O)O)C(=O)NCC(=O)NCC(=O)N1CCC[C@H]1C(=O)N[C@@H](CO)C(=O)N[C@@H](CO)C(=O)NCC(=O)N[C@@H](C)C(=O)N1CCC[C@H]1C(=O)N1CCC[C@H]1C(=O)N1CCC[C@H]1C(=O)N[C@@H](CO)C(N)=O)[C@@H](C)CC [Example 36] (H-Y[Aib]EGTFTSDYSILLDKIAQ[Aib]AFIEYLK([AEEA-AEEA-γGlu-C20 diacid])EGGPSSGAPPPS-NH2) | 413 | 0.141 | 2.29 | 0.309 | 16.4
